Data reported in ChEMBL document CHEMBL5058564, “EUbOPEN Chemogenomics Library 2 (Incucyte)” (2022).

How the values were obtained:
Type in all cases: toxicity, cell-based
HEK-293T = assay: Incucyte cell viability with HEK293T; conditions: human, 10 µM, compound concentration 10 uM
Fibroblast = assay: Incucyte cell viability with human fibroblast; conditions: 10 µM, compound concentration 10 uM
U2OS = assay: Incucyte cell viability with U2OS; conditions: human, 10 µM, compound concentration 10 uM
[1] = 6 h, replicate number 1, timepoint 6 hours
[2] = 12 h, replicate number 1, timepoint 12 hours
[3] = 18 h, replicate number 1, timepoint 18 hours
[4] = 24 h, replicate number 1, timepoint 24 hours
[5] = 0 h, replicate number 2, timepoint 0 hours
[6] = 12 h, replicate number 2, timepoint 12 hours
[7] = 0 h, replicate number 1, timepoint 0 hours
[8] = 24 h, replicate number 2, timepoint 24 hours
[9] = 6 h, replicate number 2, timepoint 6 hours
[10] = 18 h, replicate number 2, timepoint 18 hours
Further: unitless GR value; below 1 slowed growth and below 0 cell loss.

Structure (SMILES)	Growth Rate (HEK-293T; [2])	Growth Rate (HEK-293T; [3])	Growth Rate (HEK-293T; [4])	Growth Rate (Fibroblast; [5])	Growth Rate (Fibroblast; [1])	Growth Rate (Fibroblast; [2])	Growth Rate (Fibroblast; [6])	Growth Rate (U2OS; [3])	Growth Rate (U2OS; [4])	Growth Rate (HEK-293T; [7])	Growth Rate (HEK-293T; [5])	Growth Rate (Fibroblast; [7])	Growth Rate (Fibroblast; [9])	Growth Rate (Fibroblast; [10])	Growth Rate (U2OS; [7])	Growth Rate (U2OS; [1])	Growth Rate (U2OS; [6])	Growth Rate (U2OS; [10])	Growth Rate (U2OS; [5])	Growth Rate (U2OS; [8])	also measured
COc1c(Nc2ccc(S(C)(=O)=O)nc2C)ncnc1OC1CCN(C(=O)OC(C)C)CC1 [ADP-597]	0.45	0.51	0.74	0.94	0.72	0.53	0.7	0.98	1	–	–	–	–	–	–	–	–	–	–	–	Growth Rate (HEK-293T; [1]): 0.29; Growth Rate (Fibroblast; [3]): 0.34; Growth Rate (Fibroblast; [4]): 0.88
COc1cc2nc(N(C)CCCNC(=O)C3CCCO3)nc(N)c2cc1OC.Cl (stereo not given) [ALFUZOSIN HYDROCHLORIDE]	–	0.99	0.99	0.06	–	–	0.51	0.72	0.81	0.21	0.19	0.72	0.11	0.61	-0.55	0.24	0.97	0.93	–	–	Growth Rate (HEK-293T; [1]): 0.54; Growth Rate (HEK-293T; [8]): 0.96; Growth Rate (Fibroblast; [4]): 0.72; Growth Rate (Fibroblast; [8]): 0.47; Growth Rate (U2OS; [9]): 0.85; Growth Rate (U2OS; [2]): 0.43
COc1cc(Nc2ncc3c(n2)-c2ccc(Cl)cc2C(c2c(F)cccc2OC)=NC3)ccc1C(=O)O [ALISERTIB]	0.13	0.39	0.38	0.68	-0.97	-0.79	-0.17	0.19	0.39	–	–	–	-0.09	-0.13	-0.14	0.83	0.54	0.45	0.41	0.65	Growth Rate (HEK-293T; [1]): -0.03; Growth Rate (HEK-293T; [9]): 0.03; Growth Rate (HEK-293T; [6]): 0; Growth Rate (HEK-293T; [10]): 0.33; Growth Rate (HEK-293T; [8]): 0.26; Growth Rate (Fibroblast; [3]): -0.64; Growth Rate (Fibroblast; [4]): -0.39; Growth Rate (Fibroblast; [8]): -0.09; Growth Rate (U2OS; [2]): 0.43
O=c1nc2[nH]c3ccccc3nc-2c(=O)[nH]1 [ALLOXAZINE]	0.97	0.81	0.9	0.73	0.04	–	–	–	–	–	0.68	-0.4	–	–	0.16	–	–	0.95	-1	–	–
Cc1[nH]cnc1CN1CCc2c(c3ccccc3n2C)C1=O [ALOSETRON]	–	–	–	–	–	–	–	0.89	–	0.73	–	0.35	0.22	1	–	0.03	–	0.87	–	0.9	Growth Rate (HEK-293T; [9]): 0.39; Growth Rate (HEK-293T; [10]): 0.96
CCCCC[C@H](O)/C=C/[C@H]1[C@H](O)CC(=O)[C@@H]1CCCCCCC(=O)O [ALPROSTADIL]	–	–	–	0.17	–	–	–	0.53	0.85	-0.15	-0.14	-0.23	–	–	0.29	-0.08	0.88	0.83	-1	0.97	Growth Rate (HEK-293T; [1]): 0.92; Growth Rate (HEK-293T; [6]): 1; Growth Rate (HEK-293T; [10]): 0.94; Growth Rate (U2OS; [9]): 0.85; Growth Rate (U2OS; [2]): 0.28
C[C@H]1CN(C[C@H](Cc2ccccc2)C(=O)NCC(=O)O)CC[C@@]1(C)c1cccc(O)c1 [ALVIMOPAN]	0.9	1	0.93	-0.31	–	–	–	0.91	–	0.62	0.08	0.37	–	–	–	0.22	0.99	0.92	0.76	0.94	Growth Rate (HEK-293T; [9]): 0.52; Growth Rate (HEK-293T; [6]): 0.53; Growth Rate (HEK-293T; [10]): 0.88; Growth Rate (HEK-293T; [8]): 0.85
COC(c1ccccc1)(c1ccccc1)[C@H](Oc1nc(C)cc(C)n1)C(=O)O [AMBRISENTAN]	0.96	0.99	0.97	0.74	0.41	0.97	0.6	–	–	–	0.79	–	0.53	–	-0.03	–	–	0.96	-1	–	–
Cc1nnc2n1-c1sc(CCC(=O)N3CCOCC3)cc1C(c1ccccc1Cl)=NC2 [APAFANT]	–	–	–	0.77	0.26	0.81	0.51	–	–	0.99	–	–	0.74	0.73	–	0.99	0.88	0.75	–	0.93	Growth Rate (Fibroblast; [8]): 0.95; Growth Rate (U2OS; [9]): 0.76
C[C@@H](O[C@H]1OCCN(Cc2n[nH]c(=O)[nH]2)[C@H]1c1ccc(F)cc1)c1cc(C(F)(F)F)cc(C(F)(F)F)c1 [APREPITANT]	0.57	0.77	0.74	–	0.71	0.39	-0.12	0.9	–	–	–	–	-0.37	0.17	-0.52	0.29	0.65	0.69	-1	0.79	Growth Rate (HEK-293T; [1]): 0.91; Growth Rate (HEK-293T; [9]): 0.66; Growth Rate (HEK-293T; [6]): 0.97; Growth Rate (HEK-293T; [10]): 0.84; Growth Rate (Fibroblast; [3]): 0.18; Growth Rate (Fibroblast; [4]): 0.28; Growth Rate (Fibroblast; [8]): 0.5; Growth Rate (U2OS; [9]): 0.58
CC(C)[C@H](C(=O)Nc1ccc(C(=O)NO)cc1)c1ccccc1 [AR-42]	0.65	0.28	0.18	0	–	–	–	0.3	0.39	0.33	0	0.24	–	–	-0.37	0.34	0.71	0.56	0.37	0.42	Growth Rate (HEK-293T; [6]): 0.04; Growth Rate (HEK-293T; [8]): 0.23; Growth Rate (U2OS; [9]): 0.99; Growth Rate (U2OS; [2]): 0.5
CCCCC/C=C\C/C=C\C/C=C\C/C=C\CCCC(=O)NCC(=O)O [ARACHIDONOYL GLYCINE]	0.8	0.64	0.52	0.25	0.18	0.75	0.99	0.72	0.76	0.53	0.42	0.41	0.75	0.93	-0.29	0.64	0.9	0.97	0.28	–	Growth Rate (HEK-293T; [10]): 0.93; Growth Rate (HEK-293T; [8]): 0.83; Growth Rate (Fibroblast; [3]): 0.78; Growth Rate (Fibroblast; [4]): 0.8; Growth Rate (Fibroblast; [8]): 0.79; Growth Rate (U2OS; [2]): 0.64
C[C@H]1[C@H](OC(=O)CCC(=O)O)O[C@@H]2O[C@@]3(C)CC[C@H]4[C@H](C)CC[C@@H]1[C@@]24OO3 [ARTESUNATE]	-0.23	-0.07	-0.08	0.19	–	0.22	0.75	0.86	0.98	–	0.58	0.98	–	0.04	0.12	0.66	0.85	0.75	0.07	0.81	Growth Rate (HEK-293T; [1]): 0.56; Growth Rate (HEK-293T; [6]): -0.1; Growth Rate (HEK-293T; [10]): -0.18; Growth Rate (HEK-293T; [8]): -0.16; Growth Rate (Fibroblast; [3]): -0.31; Growth Rate (Fibroblast; [4]): -0.42; Growth Rate (Fibroblast; [8]): -0.06; Growth Rate (U2OS; [9]): 0.72
